Experimental data from BindingDB's records for doi:10.1016/j.bmc.2004.11.045 (Yamanouchi Pharmaceutical, 2005).
pIC50: −log10 of the molar value.

Columns and labels:
Test in all cases: HIV-1 RT Assay
[1] = target: T1, Gag-Pol polyprotein [588-1027,K690N]/[588-1147,K690N] (Human immunodeficiency virus 1, UniProt P04585, K690N)
T1 construct: 588-1027; 588-1147
From the text: (§1) The IC50 of reverse transcriptase is the concentration that inhibits 50% of recombinant HIV-1 RT RNA-directed DNA polymerase activity in vitro.

[2] = target: T2, Gag-Pol polyprotein [588-1027]/[588-1147] (Human immunodeficiency virus 1, UniProt P04585)
T2 construct: 588-1027; 588-1147
From the text: as §1

[3] = target: T3, Gag-Pol polyprotein [588-1127,Y768C]/[588-1147,Y768C] (Human immunodeficiency virus 1, UniProt P04585, Y768C)
T3 construct: 588-1127; 588-1147
From the text: as §1

Structure (SMILES)	pIC50 [1]	pIC50 [2]	pIC50 [3]	pIC50 ([1]; pH 8.4, 37 °C)	pIC50 ([2]; pH 8.4, 37 °C)	pIC50 ([3]; pH 8.4, 37 °C)
Cc1c(C(C)(C)C)s/c(=N\S(=O)(=O)c2cccc(Cl)c2O)n1C [N-[(2Z)-5-tert-butyl-3,4-dimethyl-2,3-dihydro-1,3-thiazol-2-ylidene]-3-chloro-2-hydroxybenzene-1-sulfonamide]	< 4.30	5.20	–	–	–	–
Cc1c(C(C)(C)C)s/c(=N\S(=O)(=O)c2cc(Cl)ccc2NS(C)(=O)=O)n1C [N-[(2Z)-5-tert-butyl-3,4-dimethyl-2,3-dihydro-1,3-thiazol-2-ylidene]-5-chloro-2-methanesulfonamidobenzene-1-sulfonamide]	< 4.30	< 4.30	< 4.30	–	–	–
Cc1c(C(C)(C)C)s/c(=N\S(=O)(=O)c2ccccc2[N+](=O)[O-])n1C [N-[(2Z)-5-tert-butyl-3,4-dimethyl-2,3-dihydro-1,3-thiazol-2-ylidene]-2-nitrobenzene-1-sulfonamide]	–	–	–	< 4.30	< 4.30	4.44
Cc1c(C(C)(C)C)s/c(=N\S(=O)(=O)c2ccccc2Cl)n1C [N-[(2Z)-5-tert-butyl-3,4-dimethyl-2,3-dihydro-1,3-thiazol-2-ylidene]-2-chlorobenzene-1-sulfonamide]	–	–	–	< 5.00	< 5.00	< 5.00
Cc1c(C(C)(C)C)s/c(=N\S(=O)(=O)c2ccc(O)cc2)n1C [N-(5-tert-Butyl-3,4-dimethyl-1,3-thiazol-2(3H)-ylidene)-4-hydroxybenzenesulfonamide]	< 5.00	< 5.00	< 5.00	–	–	–
CC(C)c1s/c(=N\S(=O)(=O)c2cc(Br)ccc2O)n(C)c1Cl [5-bromo-N-[(2Z)-4-chloro-3-methyl-5-(propan-2-yl)-2,3-dihydro-1,3-thiazol-2-ylidene]-2-hydroxybenzene-1-sulfonamide]	7.37	8.37	7.89	–	–	–
Cc1c(C(C)(C)C)s/c(=N\S(=O)(=O)c2cccc(Cl)c2)n1C [N-[(2Z)-5-tert-butyl-3,4-dimethyl-2,3-dihydro-1,3-thiazol-2-ylidene]-3-chlorobenzene-1-sulfonamide]	–	–	–	4.96	6.52	7.36
Cc1c(C(C)(C)C)s/c(=N\S(=O)(=O)c2cc(Cl)ccc2C(N)=O)n1C [2-{[(5-tert-Butyl-3,4-dimethyl-1,3-thiazol-2(3H)-ylidene)amino]sulfonyl}-4-chlorobenzamide]	< 5.00	< 5.00	< 5.00	–	–	–
Cc1c(C(C)(C)C)s/c(=N\S(=O)(=O)c2ccccc2)n1C	< 4.30	5.31	5.29	–	–	–
Cc1c(C(C)(C)C)s/c(=N\S(=O)(=O)c2ccc([N+](=O)[O-])cc2)n1C [N-(5-tert-Butyl-3,4-dimethyl-1,3-thiazol-2(3H)-ylidene)-4-nitrobenzenesulfonamide]	–	–	–	< 5.00	< 5.00	< 5.00
Cc1c(C(C)(C)C)s/c(=N\S(=O)(=O)c2cccc(O)c2)n1C [N-[(2Z)-5-tert-butyl-3,4-dimethyl-2,3-dihydro-1,3-thiazol-2-ylidene]-3-hydroxybenzene-1-sulfonamide]	< 4.30	5.06	4.85	–	–	–
COc1cccc(S(=O)(=O)/N=c2\sc(C(C)(C)C)c(C)n2C)c1 [N-[(2Z)-5-tert-butyl-3,4-dimethyl-2,3-dihydro-1,3-thiazol-2-ylidene]-3-methoxybenzene-1-sulfonamide]	< 4.30	5.06	–	–	–	–
Cc1c(C(C)C)s/c(=N\S(=O)(=O)c2cc(Cl)ccc2C#N)n1C [5-chloro-2-cyano-N-[(2Z)-3,4-dimethyl-5-(propan-2-yl)-2,3-dihydro-1,3-thiazol-2-ylidene]benzene-1-sulfonamide]	5.23	7.96	6.70	–	–	–
Cc1c(C(C)(C)C)s/c(=N\S(=O)(=O)c2cc(Cl)ccc2C#N)n1C [N-(5-tert-Butyl-3,4-dimethyl-1,3-thiazol-2(3H)-ylidene)-5-chloro-2-cyanobenzenesulfonamide]	< 4.30	6.74	7.16	–	–	–
Cc1c(C(C)C)s/c(=N\S(=O)(=O)c2cc(F)ccc2C#N)n1C [2-cyano-N-[(2Z)-3,4-dimethyl-5-(propan-2-yl)-2,3-dihydro-1,3-thiazol-2-ylidene]-5-fluorobenzene-1-sulfonamide]	< 5.00	7.04	5.68	–	–	–
Cc1c(C(C)(C)C)s/c(=N\S(=O)(=O)c2cc(Cl)ccc2N)n1C [2-amino-N-[(2Z)-5-tert-butyl-3,4-dimethyl-2,3-dihydro-1,3-thiazol-2-ylidene]-5-chlorobenzene-1-sulfonamide]	4.77	6.72	6.96	–	–	–
Cc1c(C(C)C)s/c(=N\S(=O)(=O)c2cc(Br)ccc2C#N)n1C [5-Bromo-2-cyano-N-(5-isopropyl-3,4-dimethyl-1,3-thiazol-2(3H)-ylidene)benzenesulfonamide]	5.41	7.74	6.59	–	–	–
CC(C)c1s/c(=N\S(=O)(=O)c2cc(Cl)ccc2O)n(C)c1Cl [5-chloro-N-[(2Z)-4-chloro-3-methyl-5-(propan-2-yl)-2,3-dihydro-1,3-thiazol-2-ylidene]-2-hydroxybenzene-1-sulfonamide]	6.77	8.03	7.68	–	–	–
CC(C)c1s/c(=N\S(=O)(=O)c2cc(Cl)ccc2C#N)n(C)c1Cl [5-Chloro-N-(4-chloro-5-isopropyl-3-methyl-1,3-thiazol-2(3H)-ylidene)-2-cyanobenzenesulfonamide]	5.43	8.05	7.04	–	–	–
Cc1c(C(C)(C)C)s/c(=N\S(=O)(=O)c2cc(Cl)ccc2O)n1C [N-(5-tert-Butyl-3,4-dimethyl-1,3-thiazol-2(3H)-ylidene)-5-chloro-2-hydroxybenzenesulfonamide]	5.96	7.49	7.96	–	–	–
Cc1c(C(C)(C)C)s/c(=N\S(=O)(=O)c2cc(Cl)ccc2[N+](=O)[O-])n1C [N-[(2Z)-5-tert-butyl-3,4-dimethyl-2,3-dihydro-1,3-thiazol-2-ylidene]-5-chloro-2-nitrobenzene-1-sulfonamide]	< 4.30	5.62	–	–	–	–
COc1ccccc1S(=O)(=O)/N=c1\sc(C(C)(C)C)c(C)n1C [N-(5-tert-Butyl-3,4-dimethyl-1,3-thiazol-2(3H)-ylidene)-2-methoxybenzenesulfonamide]	–	–	–	< 4.30	4.30	–
COc1ccc(S(=O)(=O)/N=c2\sc(C(C)(C)C)c(C)n2C)cc1 [N-(5-tert-Butyl-3,4-dimethyl-1,3-thiazol-2(3H)-ylidene)-4-methoxybenzenesulfonamide]	< 5.00	< 5.00	< 5.00	–	–	–
CC(=O)Nc1ccc(Cl)cc1S(=O)(=O)/N=c1\sc(C(C)(C)C)c(C)n1C [N-(2-{[(5-tert-Butyl-3,4-dimethyl-1,3-thiazol-2(3H)-ylidene)amino]sulfonyl}-4-chlorophenyl)acetamide]	< 4.30	< 4.30	< 4.30	–	–	–
Cc1c(C(C)C)s/c(=N\S(=O)(=O)c2cc(C#N)ccc2C#N)n1C [thiazolidenebenzenesulfonamide deriv.]	5.39	7.92	6.33	–	–	–
Cc1c(C(C)(C)C)s/c(=N\S(=O)(=O)c2ccccc2O)n1C [N-[(2Z)-5-tert-butyl-3,4-dimethyl-2,3-dihydro-1,3-thiazol-2-ylidene]-2-hydroxybenzene-1-sulfonamide]	4.52	5.80	6.39	–	–	–
Cc1c(C(C)(C)C)s/c(=N\S(=O)(=O)c2ccc(Cl)cc2)n1C [N-(5-tert-Butyl-3,4-dimethyl-1,3-thiazol-2(3H)-ylidene)-4-chlorobenzenesulfonamide]	–	–	–	< 5.00	< 5.00	< 5.00
COC(=O)c1ccc(Cl)cc1S(=O)(=O)/N=c1\sc(C(C)(C)C)c(C)n1C [methyl 2-{[(2Z)-5-tert-butyl-3,4-dimethyl-2,3-dihydro-1,3-thiazol-2-ylidene]sulfamoyl}-4-chlorobenzoate]	< 5.00	< 5.00	5.00	–	–	–
CC(C)c1s/c(=N\S(=O)(=O)c2cc(C#N)ccc2C#N)n(C)c1Cl [N-(4-Chloro-5-isopropyl-3-methyl-1,3-thiazol-2(3H)-ylidene)-2,5-dicyanobenzenesulfonamide]	5.52	8.02	6.68	–	–	–
